This is an account of results in publication PMC10233710 (ChemMedChem, 2023).

Assay [1] concerns MCF-7/TDP1 cells (overexpressing TDP1). The assay is described as follows: Drug combination with TPT. The class given is cell-based, human. The conditions noted are these: co-incubated with TPT for 96 h.
For another assay, the target named is T1, recombinant TOP1 (Homo sapiens, UniProt P11387).
T1 sequence (P11387 1-765): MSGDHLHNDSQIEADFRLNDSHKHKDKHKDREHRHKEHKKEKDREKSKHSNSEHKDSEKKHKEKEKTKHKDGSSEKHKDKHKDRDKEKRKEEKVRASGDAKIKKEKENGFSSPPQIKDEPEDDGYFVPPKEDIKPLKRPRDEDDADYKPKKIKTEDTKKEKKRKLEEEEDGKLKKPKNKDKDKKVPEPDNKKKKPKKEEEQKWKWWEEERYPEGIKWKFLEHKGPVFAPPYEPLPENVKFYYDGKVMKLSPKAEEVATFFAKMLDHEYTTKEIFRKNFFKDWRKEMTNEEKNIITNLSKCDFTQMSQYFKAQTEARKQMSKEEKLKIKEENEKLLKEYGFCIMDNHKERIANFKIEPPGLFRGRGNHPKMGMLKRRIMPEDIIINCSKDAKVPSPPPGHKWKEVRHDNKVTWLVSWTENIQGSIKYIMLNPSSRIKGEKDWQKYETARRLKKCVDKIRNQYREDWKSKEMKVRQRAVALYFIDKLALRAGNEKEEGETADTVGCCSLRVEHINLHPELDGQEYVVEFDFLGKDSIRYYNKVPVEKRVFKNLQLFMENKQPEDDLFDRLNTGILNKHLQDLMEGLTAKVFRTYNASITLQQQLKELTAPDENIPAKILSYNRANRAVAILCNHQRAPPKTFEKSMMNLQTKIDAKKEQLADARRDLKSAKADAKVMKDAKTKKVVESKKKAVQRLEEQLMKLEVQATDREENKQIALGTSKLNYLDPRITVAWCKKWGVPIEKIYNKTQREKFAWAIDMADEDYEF
The assay is described as follows: TOP1-mediated DNA cleavage assay. The class given is biochemical. The conditions noted are these: semiquantitative relative to CPT at 1 μM.

The test system of assay [2] is MCF-7 cells. Description: MTT cytotoxicity assay, MCF-7. The class given is cell-based, human. The settings on record: Homo sapiens, MCF7, 72 h, read-out: GI50 ± SD (μM) MCF-7. (Formazan colour is commonly taken as a measure of viable cells.)
In a further assay the target is recombinant human TDP1 (Homo sapiens, UniProt Q9NUW8). The assay is described as follows: TDP1 gel-based inhibition assay. The class given is biochemical.
Sequence of recombinant human TDP1 (Q9NUW8 whole entry): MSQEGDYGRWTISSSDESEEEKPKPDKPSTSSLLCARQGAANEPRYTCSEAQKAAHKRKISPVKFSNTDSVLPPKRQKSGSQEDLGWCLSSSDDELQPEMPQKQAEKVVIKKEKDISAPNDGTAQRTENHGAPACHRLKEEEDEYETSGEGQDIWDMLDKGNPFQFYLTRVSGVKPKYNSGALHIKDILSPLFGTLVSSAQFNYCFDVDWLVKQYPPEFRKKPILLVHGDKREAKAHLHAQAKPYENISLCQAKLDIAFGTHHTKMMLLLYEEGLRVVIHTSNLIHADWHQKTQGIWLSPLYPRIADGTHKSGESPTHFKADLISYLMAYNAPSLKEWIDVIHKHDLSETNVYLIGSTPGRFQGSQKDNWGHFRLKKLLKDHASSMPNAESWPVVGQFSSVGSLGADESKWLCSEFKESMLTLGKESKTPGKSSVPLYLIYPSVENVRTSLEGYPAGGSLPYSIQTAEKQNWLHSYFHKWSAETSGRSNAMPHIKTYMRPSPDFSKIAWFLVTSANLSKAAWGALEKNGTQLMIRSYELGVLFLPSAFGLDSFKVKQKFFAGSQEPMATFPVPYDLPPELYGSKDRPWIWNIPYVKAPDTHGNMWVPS
The next assay concerns HCT-116 cells. The assay is described as follows: MTT cytotoxicity assay, HCT-116. The class given is cell-based, human. The settings on record: Homo sapiens, HCT-116, 72 h, read-out: GI50 ± SD (μM) HCT-116.
Assay [3] relates to MCF-7 cells. The assay is described as follows: Drug combination with TPT. The class given is cell-based, human. The settings on record: co-incubated with TPT for 96 h, 43 at 1 μM.
Assay [4] concerns the target T2, cellular TOP1ccs in MCF-7 cells (Homo sapiens, UniProt P11387).
T2 sequence (P11387 2-765 limits assumed): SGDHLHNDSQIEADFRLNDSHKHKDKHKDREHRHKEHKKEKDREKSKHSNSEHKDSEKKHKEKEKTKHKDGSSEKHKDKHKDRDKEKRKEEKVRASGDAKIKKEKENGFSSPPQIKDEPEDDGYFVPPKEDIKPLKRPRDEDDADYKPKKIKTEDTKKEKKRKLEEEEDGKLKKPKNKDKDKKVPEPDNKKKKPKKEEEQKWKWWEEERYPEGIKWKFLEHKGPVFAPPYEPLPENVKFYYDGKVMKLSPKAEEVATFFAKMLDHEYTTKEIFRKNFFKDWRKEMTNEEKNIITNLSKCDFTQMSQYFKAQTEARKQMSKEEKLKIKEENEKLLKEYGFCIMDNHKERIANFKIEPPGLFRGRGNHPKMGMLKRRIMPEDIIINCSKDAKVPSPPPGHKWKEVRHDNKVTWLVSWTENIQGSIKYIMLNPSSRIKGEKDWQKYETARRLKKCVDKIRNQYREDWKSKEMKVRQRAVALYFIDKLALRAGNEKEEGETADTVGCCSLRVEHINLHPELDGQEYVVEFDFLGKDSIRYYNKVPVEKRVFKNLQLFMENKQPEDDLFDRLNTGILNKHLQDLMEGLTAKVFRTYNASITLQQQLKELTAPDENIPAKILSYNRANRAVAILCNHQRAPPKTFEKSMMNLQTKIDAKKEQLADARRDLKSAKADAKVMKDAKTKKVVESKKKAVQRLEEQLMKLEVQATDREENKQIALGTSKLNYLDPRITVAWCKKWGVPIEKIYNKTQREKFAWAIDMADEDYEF
The assay is described as follows: ICE assay for cellular TOP1cc. The settings on record: 1 h, 38 at 25, 50, 100 μM, TPT at 25 and 50 μM.

Assay [5] deals with MCF-7 cells. Description: Flow cytometry apoptosis assay. The class given is cell-based, human. The settings on record: 4 µM, 24 h.
The target of assay [6] is cellular TDP1ccs in MCF-7 cells (Homo sapiens, UniProt Q9NUW8). The conditions noted are these: 1 h.
Sequence of cellular TDP1ccs in MCF-7 cells (Q9NUW8 whole entry): as the sequence (Q9NUW8 whole entry) above
The subject of assay [7] is γH2AX foci in MCF-7 cells. Description: γH2AX immunofluorescence assay. The class given is cell-based, human. The conditions noted are these: 5 h.
Where [8] appears, read: TOP1 cleavage inhibitory activity, Table 2.

What is called GI50 is the concentration giving 50% growth inhibition. As usually defined, the IC50 is the concentration at which inhibition is half-maximal. With `COc1cc2c(=O)n(C)c3c4cc5c(cc4cc(OCCCN(C)C)c3c2cc1OC)OCO5` [Compound 35, 5-(3-(Dimethylamino)propoxy)-2,3-dimethoxy-12-methyl-[1,3]dioxolo[4’,5’:4,5]benzo[1,2-c]phenanthridin-13(12H)-one], the “combination index (CI) with TPT” value was 0.003–0.51 in [1] and 0.02–0.69 in the assay with MCF-7 cells [3]. The entries for the “TOP1 Inhibition” value at recombinant TOP1 (setting [8]) and at recombinant TOP1 were 0 and “no TOP1 inhibition”, respectively. In addition, the concentration for 50% growth inhibition (GI50) with MCF-7 cells [2] came out at 1.2 ± 0.1 µM; in the assay on HCT-116 cells, 0.55 ± 0.17 µM. For the same molecule, the IC50 on recombinant human TDP1 is 18 ± 6.9 µM.
As to `COc1cc2c(=O)n(C)c3c4cc5c(cc4cc(OCCN4CCCC4)c3c2cc1OC)OCO5` [Compound 38, 2,3-Dimethoxy-12-methyl-5-(2-(pyrrolidin-1-yl)ethoxy)-[1,3]dioxolo[4’,5’:4,5]benzo[1,2-c]phenanthridin-13(12H)-one], the “TOP1 Inhibition” value at recombinant TOP1 (setting [8]) was “+++ (+++, between 75% and 95% activity)”. The “cellular TOP1cc trapping” value in [4] is “trapped cellular TOP1ccs in MCF-7 cells in a dose-dependent manner”. Besides, the GI50 in the assay with MCF-7 cells [2] was 6.4 ± 1 µM; in the assay on HCT-116 cells it was 0.25 ± 0.02 µM. Moreover, on recombinant human TDP1, the IC50 fell in the range of 37 to 111 µM.
For the molecule `COc1cc2c(=O)n(C)c3c4cc5c(cc4cc(OCCCN4CCCC4)c3c2cc1OC)OCO5` [Compound 39, 2,3-Dimethoxy-12-methyl-5-(3-(pyrrolidin-1-yl)propoxy)-[1,3]dioxolo[4’,5’:4,5]benzo[1,2-c]phenanthridin-13(12H)-one], at recombinant TOP1 (setting [8]), the “TOP1 Inhibition” value is “+ (+, between 20% and 50% activity)”. The results for the GI50 with MCF-7 cells [2] and in the assay on HCT-116 cells were 1.4 ± 0.13 µM and 1.3 ± 0.21 µM, respectively. The IC50 on recombinant human TDP1 was 15 ± 2.8 µM.
On to `COc1cc2c(=O)n(C)c3c4cc5c(cc4cc(OCCN4CCOCC4)c3c2cc1OC)OCO5` [Compound 40, 2,3-Dimethoxy-12-methyl-5-(2-morpholinoethoxy)-[1,3]dioxolo[4’,5’:4,5]benzo[1,2-c]phenanthridin-13(12H)-one], for which the “TOP1 Inhibition” value at recombinant TOP1 (setting [8]) was “++ (++, between 50% and 75% activity)”. Also, the results for the GI50 in the assay on MCF-7 cells [2] and with HCT-116 cells were 18 ± 0.67 µM and 15 ± 1.08 µM, respectively. For the same molecule, the IC50 on recombinant human TDP1 was > 111 µM.
With `COc1cc2c(=O)n(C)c3c4cc5c(cc4cc(OCCCN4CCOCC4)c3c2cc1OC)OCO5` [Compound 41, 2,3-Dimethoxy-12-methyl-5-(3-morpholinopropoxy)-[1,3]dioxolo[4’,5’:4,5]benzo[1,2-c]phenanthridin-13(12H)-one], the “TOP1 Inhibition” value at recombinant TOP1 (setting [8]) is “+ (+, between 20% and 50% activity)”. The figures for the GI50 in the assay with MCF-7 cells [2] and in the assay with HCT-116 cells were 7.9 ± 1 µM and 3.3 ± 0.73 µM, respectively. Moreover, at recombinant human TDP1, the IC50 was > 111 µM.
As for `COc1cc2c(=O)n(C)c3c4cc5c(cc4cc(OCCCO)c3c2cc1OC)OCO5` [Compound 42, 5-(3-Hydroxypropoxy)-2,3-dimethoxy-12-methyl-[1,3]dioxolo[4’,5’:4,5]benzo[1,2-c]phenanthridin-13(12H)-one], the “TOP1 Inhibition” value at recombinant TOP1 (setting [8]) is “+ (+, between 20% and 50% activity)”. Also, the GI50 with MCF-7 cells [2] is 51 ± 1.6 µM; with HCT-116 cells it was 38 ± 2.31 µM. For the same molecule, the IC50 at recombinant human TDP1 is > 111 µM.
As for `COc1cc2c(=O)n(C)c3c4cc5c(cc4cc(OCCCNCCO)c3c2cc1OC)OCO5` [Compound 43, 5-(3-((2-Hydroxyethyl)amino)propoxy)-2,3-dimethoxy-12-methyl-[1,3]dioxolo[4’,5’:4,5]benzo [1,2-c]phenanthridin-13(12H)-one], the “late apoptosis, % cells” value with MCF-7 cells [5] is recorded as ~28.58%. The “combination index (CI) with TPT” value in assay [1] is given as 0.003–0.51; in the assay with MCF-7 cells [3], 0.18–0.77. Further, the “quantity of cellular TDP1cc” value in [6] (co-treated with TPT (10 μM) and 43 (10 and 100 μM)) is given as “significantly enhanced”. For the same molecule, the “cellular TDP1ccs” value in [6] (compound alone at 100 μM) was “significantly enhanced”. Further, the “TOP1 Inhibition” value on recombinant TOP1 (setting [8]) is “+ (+, between 20% and 50% activity)”. The figures for the GI50 in the assay on MCF-7 cells [2] and with HCT-116 cells were 2.2 ± 1.2 µM and 0.29 ± 0.19 µM, respectively. At recombinant human TDP1, the IC50 was 10 ± 3.8 µM. Also, the “γH2AX foci, fold compared with TPT treated alone” value in assay [7] (co-treatment with TPT and 43 at 1 μM) is on record as “about 1.9 fold”; in [7] (co-treatment with TPT and 43 at 2 μM), ~2.4 fold. The “DNA damage (γH2AX foci) relative to that of TPT” value in [7] (compound alone at 1 μM) is “about one fifth”.
For the molecule `COc1cc2c(=O)n(C)c3c4cc5c(cc4cc(OCCCn4ccnc4)c3c2cc1OC)OCO5` [Compound 44, 5-(3-(1H-imidazol-1-yl)propoxy)-2,3-dimethoxy-12-methyl-[1,3]dioxolo[4’,5’:4,5]benzo[1,2-c]phenanthridin-13(12H)-one], on recombinant TOP1 (setting [8]), the “TOP1 Inhibition” value is recorded as 0/+ (0/+, less than 20%). Moreover, the GI50 in the assay on MCF-7 cells [2] was 7 ± 0.55 µM; with HCT-116 cells, 10 ± 1.2 µM. In addition, the IC50 at recombinant human TDP1 was > 111 µM.
Take `COc1cc2c(=O)n(C)c3c4cc5c(cc4cc(OCCCN4CCN(c6cccc(C(F)(F)F)c6)CC4)c3c2cc1OC)OCO5` [Compound 45, 2,3-Dimethoxy-12-methyl-5-(3-(4-(3-(trifluoromethyl)phenyl)piperazin-1-yl)propoxy)-[1,3]dioxolo[4’,5’:4,5]benzo[1,2-c]phenanthridin-13(12H)-one]: the “TOP1 Inhibition” value at recombinant TOP1 (setting [8]) amounted to 0. The results for the GI50 with MCF-7 cells [2] and with HCT-116 cells were 85 ± 3.8 µM and > 100 µM, respectively. Moreover, on recombinant human TDP1, the IC50 is > 111 µM.
On to `CC[C@@]1(O)C(=O)OCc2c1cc1n(c2=O)Cc2cc3c(CN(C)C)c(O)ccc3nc2-1` [TPT, Topotecan, reference compound], for which, in [4], the “cellular TOP1cc trapping” value was “trapped cellular TOP1ccs”. In addition, the γH2AX foci formation entry in [7] (alone) was “could obviously induce γH2AX foci formation”.
